Measured values from patent US20230062119A1, “USE OF BIOMARKERS IN IDENTIFYING PATIENTS THAT WILL BE RESPONSIVE TO TREATMENT WITH A PRMT5 INHIBITOR” (Merck Sharp & Dohme LLC, priority 2019, published 2023).
Where two headings read alike, the source gives them in different places.

Biological target: T1, Full-length (FL)-PRMT5-MEP50 enzyme complex (Homo sapiens, UniProt O14744)
T1 construct: Full-length (FL)-PRMT5-MEP50 enzyme complex (recombinant proteins from baculovirus-transfected Sf21 cells: FL-PRMT5; MW=73837 kDa and FL-MEP50; MW=38614); made in house; host or cells: baculovirus-transfected Sf21 insect cells
T1 sequence (O14744 whole entry): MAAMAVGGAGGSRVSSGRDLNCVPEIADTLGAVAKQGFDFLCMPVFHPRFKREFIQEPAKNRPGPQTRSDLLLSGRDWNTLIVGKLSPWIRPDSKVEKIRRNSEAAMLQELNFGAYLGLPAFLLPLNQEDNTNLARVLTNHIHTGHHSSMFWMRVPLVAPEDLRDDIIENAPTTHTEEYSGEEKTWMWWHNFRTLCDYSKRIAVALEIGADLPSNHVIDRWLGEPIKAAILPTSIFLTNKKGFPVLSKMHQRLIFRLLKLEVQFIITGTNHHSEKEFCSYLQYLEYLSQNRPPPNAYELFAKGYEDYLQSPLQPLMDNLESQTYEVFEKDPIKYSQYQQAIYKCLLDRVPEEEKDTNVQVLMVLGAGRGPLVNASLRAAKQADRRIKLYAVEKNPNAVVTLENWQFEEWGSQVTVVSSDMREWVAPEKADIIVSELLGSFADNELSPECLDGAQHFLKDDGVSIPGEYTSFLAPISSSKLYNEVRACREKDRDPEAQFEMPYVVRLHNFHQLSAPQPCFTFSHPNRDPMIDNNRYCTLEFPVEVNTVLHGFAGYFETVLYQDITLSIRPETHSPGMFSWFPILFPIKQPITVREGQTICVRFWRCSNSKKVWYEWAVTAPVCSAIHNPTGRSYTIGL
T1 sequence (Q9BQA1 whole entry partner): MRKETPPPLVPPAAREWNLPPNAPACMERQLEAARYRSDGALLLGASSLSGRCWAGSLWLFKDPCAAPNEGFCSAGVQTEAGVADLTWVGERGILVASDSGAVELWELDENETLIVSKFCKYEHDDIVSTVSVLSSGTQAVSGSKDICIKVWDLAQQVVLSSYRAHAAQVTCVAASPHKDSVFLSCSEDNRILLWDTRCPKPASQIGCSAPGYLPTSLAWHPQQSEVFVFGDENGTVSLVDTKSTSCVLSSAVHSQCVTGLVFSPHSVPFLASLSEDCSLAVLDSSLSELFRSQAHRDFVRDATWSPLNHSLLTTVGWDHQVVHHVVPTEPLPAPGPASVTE
Assay: PRMT5-MEP50 Enzyme Methylation Assay
Format: biochemical
Details: 1.0 nM PRMT5-MEP50, 75 nM biotinylated peptide, 15 μM SAM
Procedure, shortened: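 Compound was pre-incubated 60 min at 37°C with 1.0 nM enzyme and 15 μM SAM (final) in 50 mM Bicine pH 8.0, then 75 nM biotinylated H4R3(Me1) peptide was added and reacted 150 min; twenty-point 1:2 titration from 100000 nM, 1% DMSO. Formic acid quench; SAMDI mass spectrometry measured Me1-to-Me2 conversion, EC50 by 4- or 7-parameter regression.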

[1] = one EC50: 4 parameters single site sigmoidal model, EC50 1: first value of 7 parameters biphasic model, read-out: Enzyme Methylation Assay (EC50 or EC50 1)
[2] = second EC50 of 7 parameters biphasic model, read-out: Enzyme Methylation Assay (EC50 2)

EC50 [1]	EC50 [2]	Compound
0.9 nM		Cc1nc(C)c2ccn([C@@H]3O[C@@H]4[C@H](Cc5ccc6cc(F)c(N)nc6c5)CC[C@]4(O)[C@H]3O)c2n1 [Example 90, (2R,3R,3aS,6S,6aR)-6-((2-amino-3-fluoroquinolin-7-yl)methyl)-2-(2,4-dimethyl-7H-pyrrolo[2,3-d]pyrimidin-7-yl)hexahydro-3aH-cyclopenta[b]furan-3,3a-diol]
0.4 nM		Cc1nc(C)c2ccn([C@@H]3O[C@@H]4[C@H](Cc5ccc6cc(Cl)c(N)nc6c5)CC[C@]4(O)[C@H]3O)c2n1 [Example 91, (2R,3R,3aS,6S,6aR)-6-((2-amino-3-chloroquinolin-7-yl)methyl)-2-(2,4-dimethyl-7H-pyrrolo[2,3-d]pyrimidin-7-yl)hexahydro-3aH-cyclopenta[b]furan-3,3a-diol]
0.5 nM		CNc1ncnc2c1ccn2[C@@H]1O[C@@H]2[C@H](Cc3ccc4cc(Br)c(N)nc4c3)CC[C@]2(O)[C@H]1O [Example 92, (2R,3R,3aS,6S,6aR)-6-((2-amino-3-bromoquinolin-7-yl)methyl)-2-(4-(methylamino)-7H-pyrrolo[2,3-d]pyrimidin-7-yl)hexahydro-3aH-cyclopenta[b]furan-3,3a-diol]
0.5 nM	110 nM	CNc1ncnc2c1ccn2[C@@H]1C[C@H](COc2ccc3cc(Br)c(N)nc3c2)[C@@](C)(O)[C@H]1O [Example 93, (1R,2S,3R,5R)-5-(((2-amino-3-bromoquinolin-7-yl)oxy)methyl)-1-methyl-3-(4-(methylamino)-7H-pyrrolo[2,3-d]pyrimidin-7-yl)cyclopentane-1,2-diol]
0.8 nM		CNc1ncnc2c1ccn2[C@@H]1O[C@@H]2[C@@H](Oc3ccc4cc(Br)c(N)nc4c3)CC[C@]2(O)[C@H]1O [Example 94, (2R,3R,3aS,6S,6aR)-6-((2-amino-3-bromoquinolin-7-yl)oxy)-2-(4-(methylamino)-7H-pyrrolo[2,3-d]pyrimidin-7-yl)hexahydro-3aH-cyclopenta[b]furan-3,3a-diol]
2.8 nM		CNc1ncnc2c1ccn2[C@@H]1O[C@@H]2[C@H](Cc3ccc4cc(F)c(N)nc4c3)CC[C@]2(O)[C@H]1O [Example 95, (2R,3R,3aS,6S,6aR)-6-((2-amino-3-fluoroquinolin-7-yl)methyl)-2-(4-(methylamino)-7H-pyrrolo[2,3-d]pyrimidin-7-yl)hexahydro-3aH-cyclopenta[b]furan-3,3a-diol]
0.8 nM		CNc1ncnc2c1c(F)cn2[C@@H]1O[C@@H]2[C@H](Cc3ccc4cc(Br)c(N)nc4c3)CC[C@]2(O)[C@H]1O [Example 96, (2R,3R,3aS,6S,6aR)-6-((2-amino-3-bromoquinolin-7-yl)methyl)-2-(5-fluoro-4-(methylamino)-7H-pyrrolo[2,3-d]pyrimidin-7-yl)hexahydro-3aH-cyclopenta[b]furan-3,3a-diol]
0.4 nM		CNc1ncnc2c1ccn2[C@@H]1C[C@@H]2[C@H](Cc3ccc4cc(Br)c(N)nc4c3)CC[C@]2(O)[C@H]1O [Example 97, (1S,2R,3aR,4S,6aR)-4-((2-amino-3-bromoquinolin-7-yl)methyl)-2-(4-(methylamino)-7H-pyrrolo[2,3-d]pyrimidin-7-yl)hexahydropentalene-1,6a(1H)-diol]
3.4 nM	2570 nM	C[C@]1(COc2ccc3cccnc3c2)O[C@@H](n2ccc3c(N)ncnc32)[C@H](O)[C@@H]1O [Example 98, (2R,3S,4R,5R)-5-(4-amino-7H-pyrrolo[2,3-d]pyrimidin-7-yl)-2-methyl-2-((quinolin-7-yloxy)methyl)tetrahydrofuran-3,4-diol]
1.7 nM	1880 nM	C[C@@]1(O)[C@@H](COc2ccc3cccnc3c2)O[C@@H](n2ccc3c(N)ncnc32)[C@@H]1O [Example 99, (2R,3S,4R,5R)-5-(4-amino-7H-pyrrolo[2,3-d]pyrimidin-7-yl)-3-methyl-2-((quinolin-7-yloxy)methyl)tetrahydrofuran-3,4-diol]
0.6 nM	32 nM	C[C@]1(COc2ccc3cc(Br)c(N)nc3c2)C[C@@H](n2ccc3c(N)ncnc32)[C@H](O)[C@@H]1O [Example 100, (1S,2R,3R,5R)-3-(((2-amino-3-bromoquinolin-7-yl)oxy)methyl)-5-(4-amino-7H-pyrrolo[2,3-d]pyrimidin-7-yl)-3-methylcyclopentane-1,2-diol]
0.3 nM		C[C@]1(COc2ccc3ccc(N)nc3c2)C[C@@H](n2ccc3c(N)ncnc32)[C@H](O)[C@@H]1O [Example 101, (1S,2R,3R,5R)-5-(4-amino-7H-pyrrolo[2,3-d]pyrimidin-7-yl)-3-(((2-aminoquinolin-7-yl)oxy)methyl)-3-methylcyclopentane-1,2-diol]
3.8 nM		Nc1ccc2ccc(O[C@H]3CC[C@@]4(O)[C@@H]3O[C@@H](n3ccc5c(N)ncnc53)[C@@H]4O)cc2n1 [Example 104, (2R,3R,3aS,6S,6aR)-2-(4-amino-7H-pyrrolo[2,3-d]pyrimidin-7-yl)-6-((2-aminoquinolin-7-yl)oxy)hexahydro-2H-cyclopenta[b]furan-3,3a-diol]
0.3 nM	21.9 nM	C[C@@]1(O)[C@@H](COc2ccc3ccc(N)nc3c2)C[C@@H](n2ccc3cncnc32)[C@@H]1O [Example 105, (1R,2S,3R,5R)-5-(((2-aminoquinolin-7-yl)oxy)methyl)-1-methyl-3-(7H-pyrrolo[2,3-d]pyrimidin-7-yl)cyclopentane-1,2-diol]
0.3 nM		Cc1cc2ccc(OC[C@H]3C[C@@H](n4ccc5c(C)ncnc54)[C@H](O)[C@]3(C)O)cc2nc1N [Example 106, (1R,2S,3R,5R)-5-(((2-amino-3-methylquinolin-7-yl)oxy)methyl)-1-methyl-3-(4-methyl-7H-pyrrolo[2,3-d]pyrimidin-7-yl)cyclopentane-1,2-diol]
0.2 nM		Cc1ncnc2c1ccn2[C@@H]1O[C@@H]2[C@H](Cc3ccc4ccc(N)nc4c3)CC[C@]2(O)[C@H]1O [Example 107, (2R,3R,3aS,6S,6aR)-6-((2-aminoquinolin-7-yl)methyl)-2-(4-methyl-7H-pyrrolo[2,3-d]pyrimidin-7-yl)hexahydro-2H-cyclopenta[b]furan-3,3a-diol]
0.2 nM		Nc1nc2cc(C[C@@H]3CC[C@@]4(O)[C@@H]3O[C@@H](n3cc(F)c5c(N)ncnc53)[C@@H]4O)ccc2cc1Br [Example 108, (2R,3R,3aS,6S,6aR)-6-((2-amino-3-bromoquinolin-7-yl)methyl)-2-(4-amino-5-fluoro-7H-pyrrolo[2,3-d]pyrimidin-7-yl)hexahydro-2H-cyclopenta[b]furan-3,3a-diol]
0.7 nM		Cc1ncnc2c1ccn2[C@@H]1C[C@](C)(CCc2ccc3cc(Br)c(N)nc3c2)[C@@H](O)[C@H]1O [Example 109, (1S,2R,3S,5R)-3-(2-(2-amino-3-bromoquinolin-7-yl)ethyl)-3-methyl-5-(4-methyl-7H-pyrrolo[2,3-d]pyrimidin-7-yl)cyclopentane-1,2-diol]
0.9 nM		Cc1ncnc2c1ccn2[C@@H]1C[C@](C)(CCc2ccc3cc4c(nc3c2)NCC4)[C@@H](O)[C@H]1O [Example 110, (1S,2R,3S,5R)-3-(2-(2,3-dihydro-1H-pyrrolo[2,3-b]quinolin-7-yl)ethyl)-3-methyl-5-(4-methyl-7H-pyrrolo[2,3-d]pyrimidin-7-yl)cyclopentane-1,2-diol]
30.6 nM	2660 nM	C[C@]1(COc2ccc3cc(Br)c(N)nc3c2)C[C@@H](n2ccc3c(N)ncnc32)[C@H](O)[C@]1(C)O [Example 111, (1R,2S,3R,5R)-5-(((2-amino-3-bromoquinolin-7-yl)oxy)methyl)-3-(4-amino-7H-pyrrolo[2,3-d]pyrimidin-7-yl)-1,5-dimethylcyclopentane-1,2-diol]
0.6 nM		Cc1ncnc2c1ccn2[C@@H]1O[C@@H]2[C@@H](Oc3ccc4cc(Cl)c(N)nc4c3)CC[C@]2(O)[C@H]1O [Example 112, (2R,3R,3aS,6S,6aR)-6-((2-amino-3-chloroquinolin-7-yl)oxy)-2-(4-methyl-7H-pyrrolo[2,3-d]pyrimidin-7-yl)hexahydro-2H-cyclopenta[b]furan-3,3a-diol]
1.1 nM		Cc1ncnc2c1ccn2[C@@H]1O[C@@H]2[C@@H](Oc3ccc4ccc(N)nc4c3)CC[C@]2(O)[C@H]1O [Example 113, (2R,3R,3aS,6S,6aR)-6-((2-aminoquinolin-7-yl)oxy)-2-(4-methyl-7H-pyrrolo[2,3-d]pyrimidin-7-Yl)hexahydro-2H-cyclopenta[b]furan-3,3a-diol]
1.4 nM		Cc1nc(N)nc2c1ccn2[C@@H]1O[C@@H]2[C@@H](Oc3ccc4cc(Br)c(N)nc4c3)CC[C@]2(O)[C@H]1O [Example 114, (2R,3R,3aS,6S,6aR)-6-((2-amino-3-bromoquinolin-7-yl)oxy)-2-(2-amino-4-methyl-7H-pyrrolo[2,3-d]pyrimidin-7-yl)hexahydro-3aH-cyclopenta[b]furan-3,3a-diol]
0.4 nM	255 nM	Cc1ncnc2c1ccn2[C@@H]1O[C@@H]2[C@@H](Oc3ccc4cc(C(F)F)c(N)nc4c3)CC[C@]2(O)[C@H]1O [Example 115, (2R,3R,3aS,6S,6aR)-6-((2-amino-3-(difluoromethyl)quinolin-7-yl)oxy)-2-(4-methyl-7H-pyrrolo[2,3-d]pyrimidin-7-yl)hexahydro-3aH-cyclopenta[b]furan-3,3a-diol]

Compound	EC50 [1]	EC50 [2]
C[C@@]1(O)[C@@H](CCc2ccc3cc(Br)c(N)nc3c2)C[C@@H](n2ccc3c(N)ncnc32)[C@@H]1O [Example 103, (1R,2S,3R,5S)-5-(2-(2-amino-3-bromoquinolin-7-yl)ethyl)-3-(4-amino-7H-pyrrolo[2,3-d]pyrimidin-7-yl)-1-methylcyclopentane-1,2-diol]	0.4 nM	40.7 nM
